According to ChEMBL document CHEMBL3351970 (Bioorg Med Chem Lett, 2014):
Values belong to the molecule of their own block, whether it stands above or below them.

How the values were obtained:
[1] = biological target: T1, Transient receptor potential cation channel subfamily V member 1 (Homo sapiens, UniProt Q8NER1); test: Antagonist activity against human TRPV1 expressed in CHO cells assessed as inhibition of capsaicin-induced channel activation by FLIPR assay; type: cell-based
[2] = biological target: T1, Transient receptor potential cation channel subfamily V member 1; test: Antagonist activity against human TRPV1 expressed in CHO cells assessed as inhibition of pH-induced channel activation by FLIPR assay; type: cell-based
[3] = biological target: T1, Transient receptor potential cation channel subfamily V member 1; test: Antagonist activity against human TRPV1 expressed in CHO cells assessed as inhibition of 45 degC heat-induced channel activation by FLIPR assay; type: cell-based
[4] = biological target: T1, Transient receptor potential cation channel subfamily V member 1; test: Antagonist activity against human TRPV1 expressed in CHO cells assessed as inhibition of NADA-induced channel activation by FLIPR assay; type: cell-based
Mus musculus [5] = test: Inhibition of capsaicin-induced hypothermia in mouse at 0.1 mg/kg, po administered 15 mins before capsaicin challenge and measured 30 mins post capsaicin injection; type: functional
Mus musculus [6] = test: Inhibition of capsaicin-induced hypothermia in mouse at 0.3 mg/kg, po administered 15 mins before capsaicin challenge and measured 30 mins post capsaicin injection; type: functional
Mus musculus [7] = test: Inhibition of capsaicin-induced hypothermia in mouse at 1 mg/kg, po administered 15 mins before capsaicin challenge and measured 30 mins post capsaicin injection; type: functional
Mus musculus [8] = test: Inhibition of capsaicin-induced hypothermia in mouse at 10 mg/kg, po administered 15 mins before capsaicin challenge and measured 30 mins post capsaicin injection; type: functional
Mus musculus [9] = test: Inhibition of capsaicin-induced hypothermia in mouse administered orally 15 mins before capsaicin challenge and measured 30 mins post capsaicin injection; type: functional, organism-based
Mus musculus [10] = test: Anti-allodynic activity in mouse model of chronic constriction injury-induced neuropathic pain assessed as inhibition of pain response at 0.0001 mg/kg, po; type: functional
Mus musculus [11] = test: Anti-allodynic activity in mouse model of chronic constriction injury-induced neuropathic pain assessed as inhibition of pain response at 0.001 mg/kg, po; type: functional
Mus musculus [12] = test: Anti-allodynic activity in mouse model of chronic constriction injury-induced neuropathic pain assessed as inhibition of pain response at 0.01 mg/kg, po; type: functional
Mus musculus [13] = test: Anti-allodynic activity in mouse model of chronic constriction injury-induced neuropathic pain assessed as inhibition of pain response at 0.1 mg/kg, po; type: functional
Mus musculus [14] = test: Anti-allodynic activity in orally dosed mouse model of chronic constriction injury-induced neuropathic pain assessed as inhibition of pain response; type: functional; details: po

T1 sequence (Q8NER1 whole entry): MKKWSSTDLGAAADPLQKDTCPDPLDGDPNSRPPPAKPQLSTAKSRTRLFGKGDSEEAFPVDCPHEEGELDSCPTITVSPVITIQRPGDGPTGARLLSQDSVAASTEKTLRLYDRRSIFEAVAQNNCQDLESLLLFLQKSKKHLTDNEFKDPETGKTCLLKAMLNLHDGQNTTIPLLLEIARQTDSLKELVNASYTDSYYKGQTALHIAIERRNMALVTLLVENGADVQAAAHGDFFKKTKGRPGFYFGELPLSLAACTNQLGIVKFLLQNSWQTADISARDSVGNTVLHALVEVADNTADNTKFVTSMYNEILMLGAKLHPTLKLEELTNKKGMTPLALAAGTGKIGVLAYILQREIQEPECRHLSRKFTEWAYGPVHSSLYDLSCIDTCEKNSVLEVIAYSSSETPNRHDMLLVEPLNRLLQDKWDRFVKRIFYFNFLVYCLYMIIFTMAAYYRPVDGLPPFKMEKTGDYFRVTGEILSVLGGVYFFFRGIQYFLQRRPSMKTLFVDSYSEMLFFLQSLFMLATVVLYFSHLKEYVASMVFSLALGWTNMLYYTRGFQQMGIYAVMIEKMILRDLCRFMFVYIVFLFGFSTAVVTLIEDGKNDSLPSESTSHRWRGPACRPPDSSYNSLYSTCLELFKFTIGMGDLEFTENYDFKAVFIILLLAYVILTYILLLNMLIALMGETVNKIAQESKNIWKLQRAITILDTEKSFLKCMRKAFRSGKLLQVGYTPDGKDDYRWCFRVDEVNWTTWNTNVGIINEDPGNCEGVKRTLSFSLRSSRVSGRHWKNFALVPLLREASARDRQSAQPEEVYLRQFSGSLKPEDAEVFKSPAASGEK

Structure (SMILES): CC(C(=O)NCc1ccc(C(F)(F)F)nc1-c1ccco1)c1ccc(NS(C)(=O)=O)c(F)c1 (stereo unspecified)
Ki [1]: 5.8 nM

Structure (SMILES): CC(C(=O)NCc1ccc(C(F)(F)F)nc1Cc1ccccc1)c1ccc(NS(C)(=O)=O)c(F)c1 (stereo unspecified)
Ki [1]: 141 nM

Structure (SMILES): CC(C(=O)NCc1ccc(C(F)(F)F)nc1-c1cc2ccccc2s1)c1ccc(NS(C)(=O)=O)c(F)c1 (stereo unspecified)
Ki [1]: 1 nM

Structure (SMILES): CC(C(=O)NCc1ccc(C(F)(F)F)nc1-c1ccc(F)cc1)c1ccc(NS(C)(=O)=O)c(F)c1 (stereo unspecified)
Ki [2]: 131 nM
Ki [3]: 25.9 nM
Ki [4]: 0.84 nM
inhibition in vivo at 0.1 mg/kg (Mus musculus [5]): 25%
inhibition in vivo at 0.3 mg/kg (Mus musculus [6]): 38%
inhibition in vivo at 1 mg/kg (Mus musculus [7]): 60%
inhibition in vivo at 10 mg/kg (Mus musculus [8]): 91%
inhibition (Mus musculus [9]): Dose-dependent effect
MPE (Mus musculus [10]): 21.9%
MPE (Mus musculus [11]): 30.5%
MPE (Mus musculus [12]): 52.9%
MPE (Mus musculus [13]): 47.1%
ED50 (Mus musculus [14]): 0.01 mg/kg

Structure (SMILES): CC(C(=O)NCc1ccc(C(F)(F)F)nc1/C=C/c1ccccc1)c1ccc(NS(C)(=O)=O)c(F)c1 (stereo unspecified)
Ki [1]: 2.2 nM

Structure (SMILES): CC(C(=O)NCc1ccc(C(F)(F)F)nc1-n1ccnc1)c1ccc(NS(C)(=O)=O)c(F)c1 (stereo unspecified)
Ki [1]: 36.1 nM

Other lines, results leading:

Ki [1]: 1.4 nM
Structure (SMILES): CC(C(=O)NCc1ccc(C(F)(F)F)nc1-c1ccoc1)c1ccc(NS(C)(=O)=O)c(F)c1 (stereo unspecified)

Ki [1]: 58 nM
Structure (SMILES): COc1cc(OC)cc(-c2nc(C(F)(F)F)ccc2CNC(=O)C(C)c2ccc(NS(C)(=O)=O)c(F)c2)c1 (stereo unspecified)

Ki [1]: 2 nM
Structure (SMILES): CC(C(=O)NCc1ccc(C(F)(F)F)nc1-c1ccsc1)c1ccc(NS(C)(=O)=O)c(F)c1 (stereo unspecified)
